Values of other authors, collected in patent publication US11999734B2, “Compounds and compositions for the treatment of cystic fibrosis” (Fondazione Istituto Italiano Di Tecnologia, priority 2018, dated 2024).

Tests used:
F508del-CFTR = F508del-CFTR (Homo sapiens, UniProt P13569, DEL508-508); settings: chronic treatment of cells with VX-770; Cholon et al. 2014, Veit et al. 2014
F508del-CFTR, sequence (P13569 with tags, fused parts or gaps DEL508-508): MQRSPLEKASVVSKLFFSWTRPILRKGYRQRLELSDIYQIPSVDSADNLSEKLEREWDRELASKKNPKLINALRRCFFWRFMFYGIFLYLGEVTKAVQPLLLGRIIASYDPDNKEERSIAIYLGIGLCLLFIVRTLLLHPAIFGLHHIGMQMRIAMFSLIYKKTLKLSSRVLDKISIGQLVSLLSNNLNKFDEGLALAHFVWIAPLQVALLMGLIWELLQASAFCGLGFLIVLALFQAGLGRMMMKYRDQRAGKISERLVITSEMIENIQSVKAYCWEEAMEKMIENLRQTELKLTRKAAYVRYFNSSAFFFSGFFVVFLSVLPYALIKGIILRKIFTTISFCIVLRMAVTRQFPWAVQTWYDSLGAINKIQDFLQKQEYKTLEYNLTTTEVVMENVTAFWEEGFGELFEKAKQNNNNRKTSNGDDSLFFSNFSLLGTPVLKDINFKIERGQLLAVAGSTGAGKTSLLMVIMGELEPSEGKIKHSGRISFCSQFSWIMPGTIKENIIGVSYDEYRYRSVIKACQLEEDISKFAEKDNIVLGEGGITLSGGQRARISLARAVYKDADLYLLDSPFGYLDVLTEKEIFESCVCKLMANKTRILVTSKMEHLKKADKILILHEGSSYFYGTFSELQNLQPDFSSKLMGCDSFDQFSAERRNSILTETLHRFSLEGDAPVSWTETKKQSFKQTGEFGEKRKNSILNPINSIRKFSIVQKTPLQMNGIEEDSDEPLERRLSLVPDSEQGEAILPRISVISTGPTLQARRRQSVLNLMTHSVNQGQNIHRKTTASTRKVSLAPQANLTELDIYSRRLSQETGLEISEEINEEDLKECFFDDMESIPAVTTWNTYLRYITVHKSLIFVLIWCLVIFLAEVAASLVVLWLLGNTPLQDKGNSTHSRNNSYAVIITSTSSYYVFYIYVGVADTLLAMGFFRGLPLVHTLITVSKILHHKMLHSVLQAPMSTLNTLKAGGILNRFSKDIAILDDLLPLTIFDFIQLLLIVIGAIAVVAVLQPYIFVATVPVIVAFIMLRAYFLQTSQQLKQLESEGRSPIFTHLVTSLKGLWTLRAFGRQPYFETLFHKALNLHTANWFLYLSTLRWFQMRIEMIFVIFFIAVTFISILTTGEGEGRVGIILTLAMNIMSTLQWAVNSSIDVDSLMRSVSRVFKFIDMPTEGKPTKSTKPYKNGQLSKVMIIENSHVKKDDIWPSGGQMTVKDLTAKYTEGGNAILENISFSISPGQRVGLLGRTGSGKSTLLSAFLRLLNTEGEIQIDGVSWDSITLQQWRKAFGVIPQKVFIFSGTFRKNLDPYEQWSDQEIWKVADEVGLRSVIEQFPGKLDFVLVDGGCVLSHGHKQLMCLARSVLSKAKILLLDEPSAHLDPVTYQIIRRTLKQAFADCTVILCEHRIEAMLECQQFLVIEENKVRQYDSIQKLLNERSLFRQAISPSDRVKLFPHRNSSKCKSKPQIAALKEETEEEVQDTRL

Structure (SMILES)	effect on corrector activity of VX-809 (F508del-CFTR)	efficacy in clinical trials (CF patients; VX-770, Ramsey et al. 2011)	therapeutic benefit in clinical trials (CF patients; CF patients with F508del mutation, Clancy et al. 2012)
CC(C)(C)c1cc(C(C)(C)C)c(NC(=O)c2c[nH]c3ccccc3c2=O)cc1O [VX-770, ivacaftor]	decreases the corrector activity of VX-809	high efficacy	–
Cc1ccc(NC(=O)C2(c3ccc4c(c3)OC(F)(F)O4)CC2)nc1-c1cccc(C(=O)O)c1 [VX-809, lumacaftor]	–	–	did not show a clear therapeutic benefit
